Reference: patent US20230183187A1, “QUINAZOLINE COMPOUNDS AS INHIBITORS OF PREMATURE TERMINATION CODONS” (CENTRE NATIONAL DE LA RECHERCHE SCIENTIFIQUE, priority 2020, published 2023)

What was measured:
HeLa cells = test: IC50 in HeLa cells; type: cell-based; settings: Homo sapiens
nonsense mutation W1268X = test: pAC99 dual reporter readthrough in HeLa cells, W1268X; type: cell-based, human; settings: 24 hours
Procedure: (§1) Different compounds of the invention have been tested for their ability to induce readthrough on the nonsense mutation W1268X or R213X in HeLa cells.
(§2) To this aim the inventors used the pAC99 dual reporter plasmid. This dual reporter is used to quantify stop-codon readthrough through the measurement of luciferase and beta-galactosidase (internal normalisation) activities. Readthrough levels for nonsense mutations were analysed in the presence or absence of tested molecules. Cells are seeded in a 6-well plate. The next day, cells are transfected with the reporter plasmid using the JetPei reagent (Invitrogen). The following day, they are rinsed with fresh medium, with or without readthrough inducers. Cells were harvested 24 hours later, with trypsin—EDTA (Invitrogen), lysed with Glo lysis buffer (Promega) and beta-galactosidase and luciferase activities were assayed as previously described. Readthrough efficiency was estimated by calculating the ratio of luciferase activity to beta-galactosidase activity obtained with the test construct, with normalisation against an in-frame control construct. At least five independent transfection experiments were performed for each assay.

nonsense mutation R213X = test: pAC99 dual reporter readthrough in HeLa cells, R213X; type: cell-based, human; settings: 24 hours
Procedure: as §1, §2

[1] = system: p53 (endogenous nonsense mutation R213X) in HDQ-P1 cells; test: Western blot of full-length p53 in HDQ-P1 cells; type: cell-based, human; settings: HDQ-P1, 48 h; for production of the full-length p53 (western blot): TLN68 50 μM, TLN236 30 μM, TLN309 40 μM
Procedure: HDQ-P1 cells (R213X) were treated with G418 ([…]), or the selected molecules (TLN68 50 μM, TLN1399 50 μM, TLN236 30 μM and TLN309 40 μM), for 48 h. Cells were harvested by treatment with trypsin—EDTA (Invitrogen), lysed in 350 mM NaCl, 50 mM Tris—HCl pH 7.5, 1% NP-40, and protease inhibitor cocktail (Roche) and disrupted by passage through a syringe.
Total proteins were quantified with Bradford reagent (Biorad) and extracts were denatured by incubation in Laemmli buffer for 5 minutes at 90° C. The inventors subjected 30 μg of total protein from HDQ-1 cells to SDS—PAGE in 4/10% Bis—Tris gels. Proteins were transferred onto nitrocellulose membranes, according to the manufacturer's instructions (Biorad). Membranes were saturated by overnight incubation in 5% skimmed milk powder in PBS, and incubated for 1 hour with the primary monoclonal antibody, DO-1 (N-terminal epitope mapping between amino acid residues 11 and 25 of p53; Santa Cruz Biotechnologies, 1/400) or a monoclonal antibody against mouse actin (Millipore, 1/2000). After three washes in PBS supplemented with 0.1% Tween, the membranes were incubated with the secondary antibody [horseradish peroxidase-conjugated anti-mouse IgG ( 1/2500)] for 45 minutes. The membranes were washed five times and chemiluminescence was detected with ECL Prime Western Blotting Detection Reagents (Amersham, GE Healthcare). The signal was quantified with ImageJ software.

TP53-R213X mRNA = test: RT-qPCR of mutant p53 mRNA in HDQ-P1 cells; type: cell-based, human; settings: HDQ-P1, 48 hours; TLN68 80 μM, TLN309 40 μM; n=3
Procedure: For the analysis of mRNA levels for p53 and its transcriptional target genes, Bax, the inventors extracted total RNA from HDQ-P1 cells that had or had not been treated with G418 (400 μM) or TLN68 (80 μM) for 48 hours (RNeasy Mini Kit, Qiagen). The RNA was treated with DNAse I (RNase-free DNase) and quantified with a Nanodrop spectrometer (ThermoScientific). The absence of RNA degradation was confirmed by agarose gel electrophoresis. The first-strand cDNA was synthesized from 2 μg of total RNA, with random primers and the SuperScript II Reverse Transcriptase (Invitrogen), as recommended by the manufacturer. Quantitative PCR was then carried out on equal amounts of the various cDNAs, with a CFX96 thermocycler (Biorad), and the accumulation of products was monitored with the intercalating dye FastStart Universal SYBRGreen Master (ROX) reagent (Roche). The inventors quantified mRNA levels relative to three reference mRNAs: RPL32, Hprt1 and HMBS. In each experiment, results are expressed relative to those for untreated cells, for which the value obtained was set to 1. Relative levels of gene expression were calculated at early stages of PCR, when the amplification was exponential and might, therefore, be correlated with the initial number of copies of the transcript. […] For the quantification of each mRNA, three independent experiments (from biological replicates) were performed in triplicate. […]

[2] = system: TP53 R213X nonsense mutation; test: Dual reporter (lacZ/F-luc, pAC99) stop codon readthrough quantification, R213X, NIH3T3 cells; type: cell-based, mouse; settings: 24 h, each drug separately or together
Excerpt: Complementary oligonucleotides corresponding to TP53 R213X nonsense mutations and 9 nucleotides on both sides are ligated into the pAC99 dual reporter plasmid, as previously described (Premature stop codons involved in muscular dystrophies show a broad spectrum of readthrough efficiencies in response to gentamicin treatment, Bidou et al, Gene Therapy 1 Apr. 2004, 11(7):619-627). This dual reporter is used to quantify stop-codon readthrough through the measurement of luciferase and beta-galactosidase (internal calibration) activities, as previously described (Stahl et al, Versatile vectors to study recoding: conservation of rules between yeast and mammalian cells. Nucleic Acids Res 1995; 23:1557-60). Readthrough levels for nonsense mutations were analysed in the presence or absence of tested molecules. Cells were seeded in a 6-well plate. The next day, cells are transfected with the reporter plasmid in the presence of JetPei reagent (Invitrogen). The following day, they are rinsed with fresh medium, with or without readthrough inducers. […] Readthrough efficiency was estimated by calculating the ratio of luciferase activity to beta-galactosidase activity obtained with the test construct, with normalisation against an in-frame control construct. […]

[3] = system: TP53 nonsense mutation R213X; test: Secreted Metridia luciferase R213X reporter in stable NIH3T3 cell line (HTS); type: cell-based, mouse; settings: gentamicin 1.6 mM 24 hours, 7 clones, library molecules 50 μM
Procedure: All cells were cultured in DMEM plus GlutaMAX (Invitrogen), except for H1299 cells, which were cultured in RPMI plus GlutaMAX (Invitrogen). The medium was supplemented with 10% foetal calf serum (FCS, Invitrogen) and 100 U/ml penicillin/streptomycin. Cells were kept in a humidified atmosphere containing 5.5% CO2, at 37° C. NIH3T3 cells are embryonic mouse fibroblasts. H1299 is a p53-null cell line established from a human lung carcinoma (provided by the ATCC). HDQ-P1 is homozygous for a nonsense mutation at codon 213 (CGA to TGA) in the p53 gene. This cell line was established from a human primary breast carcinoma and was provided by DSMZ-German collection of microorganisms and cell cultures. In order to generate a stable mammalian cell line the inventors used a secreted Metridia luciferase reporter gene derived from pMetLuc2 (Clonetech). […] Seven neomycin resistant clones were tested for their capacity to express active metridiae after readthrough induction in the presence of 1.6 mM gentamicin during 24 hours. Then 50 μL of culture medium was taken from each well and incubated in the presence of substrate: coelenterazine, according to the conditions recommended by the supplier (Ready-To-Glow Secreted Luciferase Reporter Assay (Clonetech)). The photon emission generated by the reaction was measured in a plate luminometer (Tecan). […]

dystrophin = settings: skeletal muscle of mdx mice, subcutaneous injections (Barton-Davis et al, 1999); cited from earlier work

In the case of `Cc1nc(NC(=N)N)nc2c(C)c(Br)ccc12` [EC-130, 1-(7-bromo-4,8-dimethylquinazolin-2-yl)guanidine], the IC50 (HeLa cells) is reported as 10 µM, the “Inducting factor of readthrough as compared to untreated cells (measured on nonsense mutation W1268X)” value (nonsense mutation W1268X) is reported as 21 and the “Inducting factor of readthrough as compared to untreated cells (measured on nonsense mutation R213X)” value (nonsense mutation R213X) is reported as 33.

In the case of `Cc1nc(NC(=N)N)nc2cc(Br)ccc12` [EC-85], the IC50 (HeLa cells) is reported as 20 µM, the “Inducting factor of readthrough as compared to untreated cells (measured on nonsense mutation W1268X)” value (nonsense mutation W1268X) is reported as 15 and the “Inducting factor of readthrough as compared to untreated cells (measured on nonsense mutation R213X)” value (nonsense mutation R213X) is reported as 16.

In the case of `Cc1nc(NC(=N)N)nc2c(C)c(Cl)ccc12` [EC-335, 1-(7-chloro-4,8-dimethylquinazolin-2-yl)guanidine], the IC50 (HeLa cells) is reported as 10 µM, the “Inducting factor of readthrough as compared to untreated cells (measured on nonsense mutation W1268X)” value (nonsense mutation W1268X) is reported as 33 and the “Inducting factor of readthrough as compared to untreated cells (measured on nonsense mutation R213X)” value (nonsense mutation R213X) is reported as 38.

In the case of `COc1cccc2c(C)nc(NC(=N)N)nc12` [EC-30], the IC50 (HeLa cells) is reported as 80 µM and the “Inducting factor of readthrough as compared to untreated cells (measured on nonsense mutation W1268X)” value (nonsense mutation W1268X) is reported as 10.

In the case of `Cc1nc(NC(=N)N)nc2c(C)c(F)ccc12` [EC-288, 1-(7-fluoro-4,8-dimethylquinazolin-2-yl)guanidine], the IC50 (HeLa cells) is reported as 20 µM, the “Inducting factor of readthrough as compared to untreated cells (measured on nonsense mutation W1268X)” value (nonsense mutation W1268X) is reported as 68 and the “Inducting factor of readthrough as compared to untreated cells (measured on nonsense mutation R213X)” value (nonsense mutation R213X) is reported as 55.

With `COc1ccc2c(C)nc(NC(=N)N)nc2c1` [EC-18, 1-(7-methoxy-4-methylquinazolin-2-yl)guanidine] the IC50 (HeLa cells) was 60 µM, the “Inducting factor of readthrough as compared to untreated cells (measured on nonsense mutation W1268X)” value (nonsense mutation W1268X) was 69 and the “Inducting factor of readthrough as compared to untreated cells (measured on nonsense mutation R213X)” value (nonsense mutation R213X) was 50.

With `COc1cc(C(=O)OCCCN2CCCN(CCCOC(=O)c3cc(OC)c(OC)c(OC)c3)CC2)cc(OC)c1OC.Cl.Cl` [TLN236] the “production of the full-length p53 (western blot)” value [1] was “no protein is revealed”.

For `CCc1nc(NC(=N)N)nc2cc(OC)ccc12` [EC-265], the IC50 (HeLa cells) was 60 µM, the “Inducting factor of readthrough as compared to untreated cells (measured on nonsense mutation W1268X)” value (nonsense mutation W1268X) was 19 and the “Inducting factor of readthrough as compared to untreated cells (measured on nonsense mutation R213X)” value (nonsense mutation R213X) was 40.

With `Cc1nc(NC(=N)N)nc2cc(F)ccc12` [EC-11] the IC50 (HeLa cells) was 40 µM and the “Inducting factor of readthrough as compared to untreated cells (measured on nonsense mutation W1268X)” value (nonsense mutation W1268X) was 11.

In the case of `CCN(CC)Cc1cc(Nc2ccnc3cc(Cl)ccc23)ccc1O` [TLN309, Amodiaquine], the “level of induction of full-length p53 compared with G418” value ([1]; G418 10 and 20 mM) is reported as “even higher to the one obtained in presence of G418”, the “production of the full-length p53 (western blot)” value [1] is reported as “stimulate the production of the full-length p53” and the “stabilisation of TP53-R213X mRNA relative to untreated” value (TP53-R213X mRNA) is reported as “marginal stabilisation”.

In the case of gentamicin, the readthrough level [2] is given as 10%, the “induction of Metridia luciferase activity” value [3] is given as “significant induction” and the “restoration of dystrophin levels relative to wild-type animals” value (dystrophin) is given as 10-20%.

For `Cc1nc(NC(=N)N)nc2c(C)cccc12` [EC-35, 1-(4,8-dimethylquinazolin-2-yl)guanidine], the IC50 (HeLa cells) was 20 µM, the “Inducting factor of readthrough as compared to untreated cells (measured on nonsense mutation W1268X)” value (nonsense mutation W1268X) was 11 and the “Inducting factor of readthrough as compared to untreated cells (measured on nonsense mutation R213X)” value (nonsense mutation R213X) was 14.

With `Cc1nc(NC(=N)N)nc2cc(Cl)ccc12` [EC-141] the IC50 (HeLa cells) was 40 µM and the “Inducting factor of readthrough as compared to untreated cells (measured on nonsense mutation W1268X)” value (nonsense mutation W1268X) was 16.
